Several values for one entry are separate records, joined by “and”; a condition that tells them apart may be missing. Equal entries are not always repeated. Toxic doses and inconclusive results are not listed.
Test system: L1210 leukemia ip in BDF1 mice, survival T/C
Assay: NCI In Vivo Anticancer Drug Screen. Data for tumor model L1210 Leukemia (intraperitoneal) in B6D2F1 (BDF1) mice
Settings: endpoint: mean survival time, higher = longer survival
In short: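 Transplanted-tumor mice were given test agent; controls received vehicle only. Survival readings from the two groups were divided (treated over control).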

[1] = dose: 37.5 mg/kg/injection, schedule: Q04DX003 (ip), vehicle: saline
[2] = dose: 75.0 mg/kg/injection, schedule: Q04DX003 (ip), vehicle: saline
[3] = dose: 100.0 mg/kg/injection, schedule: Q01DX009 (ip), vehicle: saline
[4] = dose: 150.0 mg/kg/injection, schedule: Q04DX003 (ip), vehicle: saline
[5] = dose: 200.0 mg/kg/injection, schedule: Q01DX009 (ip), vehicle: saline
[6] = dose: 50.0 mg/kg/injection, schedule: Q01DX009 (ip), vehicle: saline
[7] = dose: 100.0 mg/kg/injection, schedule: Q01DX001 (ip), vehicle: carboxymethylcellulose (CMC)
[8] = dose: 100.0 mg/kg/injection, schedule: Q04DX003 (ip), vehicle: carboxymethylcellulose (CMC)
[9] = dose: 200.0 mg/kg/injection, schedule: Q01DX001 (ip), vehicle: carboxymethylcellulose (CMC)
[10] = dose: 200.0 mg/kg/injection, schedule: Q04DX003 (ip), vehicle: carboxymethylcellulose (CMC)
[11] = dose: 400.0 mg/kg/injection, schedule: Q04DX003 (ip), vehicle: carboxymethylcellulose (CMC)
[12] = dose: 100.0 mg/kg/injection, schedule: Q01DX009 (ip), vehicle: saline with Tween-80
[13] = dose: 200.0 mg/kg/injection, schedule: Q01DX009 (ip), vehicle: saline with Tween-80
[14] = dose: 50.0 mg/kg/injection, schedule: Q01DX009 (ip), vehicle: other
[15] = dose: 12.5 mg/kg/injection, schedule: Q01DX009 (ip), vehicle: saline
[16] = dose: 100.0 mg/kg/injection, schedule: Q04DX002 (ip), vehicle: saline with Tween-80
[17] = dose: 200.0 mg/kg/injection, schedule: Q04DX002 (ip), vehicle: saline with Tween-80
[18] = dose: 400.0 mg/kg/injection, schedule: Q04DX002 (ip), vehicle: saline with Tween-80
[19] = dose: 400.0 mg/kg/injection, schedule: Q01DX001 (ip), vehicle: carboxymethylcellulose (CMC)

With NC(=O)c1ccc[n+](Cc2ccccc2)c1 the T/C [1] was 97 % of control, the T/C [2] was 94 % of control and the T/C [3] was 100 % of control. The T/C [4] was 95 % of control and the T/C [5] was 107 % of control.
O=C(N/C=C/NC(=O)Oc1c(I)cc(I)cc1I)Oc1c(I)cc(I)cc1I was tested, and the T/C (dose: 100.0 mg/kg/injection, schedule: Q01DX009 (ip), vehicle: Klucel (hydroxypropylcellulose) (HPC)) was 92 % of control, the T/C (dose: 200.0 mg/kg/injection, schedule: Q01DX009 (ip), vehicle: Klucel (hydroxypropylcellulose) (HPC)) was 100 % of control and the T/C (dose: 400.0 mg/kg/injection, schedule: Q01DX009 (ip), vehicle: Klucel (hydroxypropylcellulose) (HPC)) was 102 % of control.
With COc1ccc(CSC(=S)Nc2ccc(Cl)c(Cl)c2)cc1OC the T/C [1] was 101 % of control, the T/C [2] was 93 % of control and the T/C [4] was 101 % of control.
For CCC(N)CO (configuration not stated), the T/C (dose: 100.0 mg/kg/injection, schedule: Q01DX001 (ip), vehicle: saline) was 97 % of control and the T/C (dose: 200.0 mg/kg/injection, schedule: Q01DX001 (ip), vehicle: saline) was 106 % of control.
With CCCn1nnc2ccccc2c1=Nc1ccccc1Cl the T/C [6] was 97 % of control, the T/C [3] was 88 % of control and the T/C (dose: 100.0 mg/kg/injection, schedule: Q04DX003 (ip), vehicle: saline) was 110 % of control. For the same compound, the T/C [5] was 97 % of control, the T/C (dose: 200.0 mg/kg/injection, schedule: Q04DX003 (ip), vehicle: saline) was 106 % of control and the T/C (dose: 400.0 mg/kg/injection, schedule: Q04DX003 (ip), vehicle: saline) was 100 % of control.
In the case of O=C(Nc1ccc(S(=O)(=O)O)cc1)c1ccc(C(=O)Nc2ccc(S(=O)(=O)O)cc2)cc1, the T/C (dose: 30.0 mg/kg/injection, schedule: Q01DX Z (ip), vehicle: saline) is reported as 91 % of control, the T/C (dose: 60.0 mg/kg/injection, schedule: Q01DX Z (ip), vehicle: saline) is reported as 97 % of control and the T/C (dose: 120.0 mg/kg/injection, schedule: Q01DX Z (ip), vehicle: saline) is reported as 93 % of control.
With O=C(Nc1ccc(F)cc1)Nc1ccc(CCO)cc1 the T/C [7] was 99 % of control, the T/C (dose: 100.0 mg/kg/injection, schedule: Q01DX009 (ip), vehicle: carboxymethylcellulose (CMC)) was 101 % of control and 104 % of control and the T/C (dose: 100.0 mg/kg/injection, schedule: Q04DX002 (ip), vehicle: carboxymethylcellulose (CMC)) was 92 % of control and 87 % of control and 91 % of control. For the same compound, the T/C [8] was 95 % of control, the T/C [9] was 92 % of control and the T/C (dose: 200.0 mg/kg/injection, schedule: Q01DX009 (ip), vehicle: carboxymethylcellulose (CMC)) was 92 % of control and 98 % of control. The T/C (dose: 200.0 mg/kg/injection, schedule: Q04DX002 (ip), vehicle: carboxymethylcellulose (CMC)) was 87 % of control and 88 % of control and 90 % of control, the T/C [10] was 101 % of control and the T/C (dose: 400.0 mg/kg/injection, schedule: Q01DX009 (ip), vehicle: carboxymethylcellulose (CMC)) was 92 % of control. For the same compound, the T/C (dose: 400.0 mg/kg/injection, schedule: Q04DX002 (ip), vehicle: carboxymethylcellulose (CMC)) was 93 % of control and 87 % of control and 88 % of control and the T/C [11] was 91 % of control.
For COc1cc(C=Nc2cccc(C(=O)O)c2)ccc1N(CCCl)CCCl, the T/C (dose: 50.0 mg/kg/injection, schedule: Q01DX001 (ip), vehicle: carboxymethylcellulose (CMC)) was 117 % of control.
With CC(=O)OC(c1ccccc1)C(Cl)(Cl)Cl (configuration not stated) the T/C [12] was 93 % of control, the T/C [13] was 104 % of control and the T/C (dose: 400.0 mg/kg/injection, schedule: Q01DX009 (ip), vehicle: saline with Tween-80) was 97 % of control.
With CC(C#N)OC(=O)c1ccccc1 (configuration not stated) the T/C (dose: 8.75 mg/kg/injection, schedule: Q01DX009 (ip), vehicle: acetone) was 96 % of control, the T/C (dose: 12.5 mg/kg/injection, schedule: Q01DX001 (ip), vehicle: saline) was 100 % of control and the T/C (dose: 17.5 mg/kg/injection, schedule: Q01DX009 (ip), vehicle: acetone) was 95 % of control. The T/C (dose: 25.0 mg/kg/injection, schedule: Q01DX001 (ip), vehicle: saline) was 105 % of control, the T/C (dose: 35.0 mg/kg/injection, schedule: Q01DX009 (ip), vehicle: acetone) was 91 % of control and the T/C (dose: 35.0 mg/kg/injection, schedule: Q04DX003 (ip), vehicle: saline) was 95 % of control. For the same compound, the T/C (dose: 50.0 mg/kg/injection, schedule: Q01DX009 (ip), vehicle: acetone) was 94 % of control.
In the case of CCCCOP(=O)(OCCCC)Oc1ccc2ccccc2c1, the T/C [14] is reported as 97 % of control and 88 % of control, the T/C (dose: 100.0 mg/kg/injection, schedule: Q01DX009 (ip), vehicle: other) is reported as 94 % of control and the T/C (dose: 100.0 mg/kg/injection, schedule: Q04DX002 (ip), vehicle: other) is reported as 94 % of control and 96 % of control. For the same compound, the T/C [8] was 102 % of control, the T/C (dose: 200.0 mg/kg/injection, schedule: Q01DX009 (ip), vehicle: other) was 100 % of control and 102 % of control and the T/C (dose: 200.0 mg/kg/injection, schedule: Q04DX002 (ip), vehicle: other) was 96 % of control and 92 % of control. For the same compound, the T/C [10] was 100 % of control, the T/C (dose: 400.0 mg/kg/injection, schedule: Q04DX002 (ip), vehicle: other) was 94 % of control and 96 % of control and the T/C [11] was 97 % of control.
O=P1(c2ccccc2)CCc2[nH]c3ccc(F)cc3c2C1 (configuration not stated) was tested, and the T/C (dose: 100.0 mg/kg/injection, schedule: Q01DX001 (ip), vehicle: Klucel (hydroxypropylcellulose) (HPC)) was 97 % of control, the T/C (dose: 200.0 mg/kg/injection, schedule: Q01DX001 (ip), vehicle: Klucel (hydroxypropylcellulose) (HPC)) was 100 % of control and the T/C (dose: 400.0 mg/kg/injection, schedule: Q01DX001 (ip), vehicle: Klucel (hydroxypropylcellulose) (HPC)) was 98 % of control.
C[Se]c1ncnc2c(C3OC(CO)C(O)C3O)[nH]nc12 (configuration not stated) was tested, and the T/C (dose: 3.12 mg/kg/injection, schedule: Q01DX005 (ip), vehicle: saline) was 106 % of control, the T/C (dose: 3.12 mg/kg/injection, schedule: Q01DX009 (ip), vehicle: saline) was 112 % of control and the T/C (dose: 6.25 mg/kg/injection, schedule: Q01DX005 (ip), vehicle: saline) was 109 % of control. The T/C (dose: 6.25 mg/kg/injection, schedule: Q01DX009 (ip), vehicle: saline) was 94 % of control, the T/C (dose: 12.5 mg/kg/injection, schedule: Q01DX005 (ip), vehicle: saline) was 104 % of control and the T/C [15] was 91 % of control.
With Cc1ccc(/C=N\NC(=O)C(O)C(O)C(O)C(O)CO)cc1 (configuration not stated) the T/C [16] was 91 % of control, the T/C [17] was 91 % of control and the T/C [18] was 109 % of control.
For CC(C)(CO)NCc1ccc(O)cc1, the T/C [7] was 96 % of control, the T/C [9] was 100 % of control and the T/C [19] was 96 % of control.
NC(=S)c1cccc(OCc2ccccc2)c1 was tested, and the T/C [12] was 106 % of control and the T/C [13] was 92 % of control.
In the case of Cc1ccc(C2C(C(=O)N3CCN(C)CC3)C2c2ccccc2)cc1 (configuration not stated), the T/C (dose: 25.0 mg/kg/injection, schedule: Q04DX002 (ip), vehicle: saline) is reported as 98 % of control, the T/C (dose: 50.0 mg/kg/injection, schedule: Q04DX002 (ip), vehicle: saline) is reported as 98 % of control and the T/C (dose: 100.0 mg/kg/injection, schedule: Q04DX002 (ip), vehicle: saline) is reported as 95 % of control.
In the case of CNC(=O)Oc1cc2ccccc2cc1C(=O)Nc1ccccc1, the T/C (dose: 100.0 mg/kg/injection, schedule: Q04DX002 (ip), vehicle: Klucel (hydroxypropylcellulose) (HPC)) is reported as 97 % of control, the T/C (dose: 200.0 mg/kg/injection, schedule: Q04DX002 (ip), vehicle: Klucel (hydroxypropylcellulose) (HPC)) is reported as 100 % of control and the T/C (dose: 400.0 mg/kg/injection, schedule: Q04DX002 (ip), vehicle: Klucel (hydroxypropylcellulose) (HPC)) is reported as 113 % of control.
With Nc1ncnc2c1ncn2C1OC(CCO)C(O)C1O (configuration not stated) the T/C [7] was 100 % of control, the T/C [9] was 96 % of control and the T/C [19] was 93 % of control.
With Cc1ccc(C(SCC(N)C(=O)O)(c2ccc(C)cc2)c2ccc(C)cc2)cc1 (configuration not stated) the T/C (dose: 4.8 mg/kg/injection, schedule: Q01DX009 (ip), vehicle: saline) was 95 % of control, the T/C (dose: 6.5 mg/kg/injection, schedule: Q01DX009 (ip), vehicle: saline) was 108 % of control and the T/C (dose: 7.2 mg/kg/injection, schedule: Q01DX009 (ip), vehicle: saline) was 104 % of control. For the same compound, the T/C [15] was 123 % of control, the T/C [14] was 120 % of control and the T/C [6] was 157 % of control. The T/C [3] was 221 % of control and the T/C (dose: 400.0 mg/kg/injection, schedule: Q01DX009 (ip), vehicle: other) was 94 % of control.
With CCCCCOC(=O)CCCc1ccc(N(CCCl)CCCl)cc1 the T/C [6] was 123 % of control and the T/C [3] was 86 % of control.
With CC(C1CCCC1)C1CCCC1 the T/C [16] was 96 % of control, the T/C [17] was 90 % of control and the T/C [18] was 109 % of control.

Reference: PubChem BioAssay AID248 (DTP/NCI, 2004)
